The values below are quoted from earlier work in US20230321114A1, “METHODS OF TREATING AGE-RELATED COGNITIVE DECLINE” (Woolsey Pharmaceuticals, Inc., priority 2020, published 2023).

The subject of one data set is memory in aging rats. The note with it: eighteen-month old rats, 0.1875 or 0.3750 mg per day, single daily injection.
For data set [1] the following is noted: in vivo, metabolite.

On to `O=S(=O)(c1cccc2c(O)nccc12)N1CCCNCC1` [hydroxyfasudil], for which, in the data set on memory in aging rats (Morris Water Maze), the spatial reference memory result is “not in spatial reference memory”. Moreover, in the data set on memory in aging rats (Morris Water Maze (radial maze)), the working memory entry is on record as “improvements in working memory”. The half-life entry in data set [1] is “about 8 hours”.
